Patent US20230255990A1, “USE OF 2'-FL FOR TREATMENT OF SYMPTOMS ASSOCIATED WITH AUTISM SPECTRUM DISORDER” (Glycosyn LLC, priority 2020, published 2023)

Tests used:
[1] = tested on: gastrointestinal mitochondrial function; settings: murine model; pathways of electron transport chain, oxidative phosphorylation, protein targeting to the mitochondrion; cited from earlier work
mouse model for ASD = assay: Sociality (aggregons) in mouse model for ASD, pups of antibiotic-treated mothers; format: in vivo
From the text: ASD is a neurobehavioral disorder in which affected individuals have persistent deficits in social communication and interaction (symptom of ASD). To address the impact of 2′-FL administration on social communication and interaction, a mouse model for ASD was designed and experiments conducted to study ASD-associated neurobehavioral disorders such as interpersonal sociality. A depiction of the system used for scoring contact behavior was adapted from known method, e.g., that described by Harshaw, C. et al. (2014). “Sex Differences in Thermogenesis Structure Behavior and Contact within Huddles of Infant Mice.” Plos One, 9(1), 1-15 and Sokoloff G, Blumberg M S. Competition and cooperation among huddling infant rats. Dev Psychobiol. 2001 September; 39(2):65-75. doi: 10.1002/dev.1030, Erratum in: Dev Psychobiol 2001 November; 39(3):229.
The question to be addressed was whether providing 2′-FL rescues the normal sociality of mouse pups whose social interaction was perturbed. Perturbation of behavior was achieved by antibiotic treatment of their mothers using a method previously developed and validated. Sociality is measured by objective measurement of “aggregons” which means the (a) huddling of dams and pups or (b) pups only in groups.
The mouse experiment involved 22 mother-pup litters including a control group (n=7 litters with 28 pups), an antibiotic treated group (7 litters with 28 pups), and a 2′-FL treated group (8 litters with 32 pups).
Mothers were treated with an antibiotic cocktail, starting from gestational day 12; delivery was on day 20. Antibiotic use was continued for mothers postpartum. Treatment of 2′-FL was given to mothers and pups through their water intake. Sociality was measured at night, as mice are nocturnal animals, using the mean number of aggregons (social groupings). Aggregons could consist of individual mice only if they were not huddled with other mice, or they could be a group defined as either one or more pups with the dam, or two or more pups without the dam. The outcome of the experiment was measured on postpartum day 7. […]

bifidobacteria = settings: alone or in combination with other HMOs; cited from earlier work
[2] = tested on: IL-10 and inflammatory cytokine expression; settings: 2′-FL alone or as part of an HMO mixture, pre-clinical studies; cited from earlier work

With 2′-fucosyllactose [2′-FL] as the substance, how does the gastrointestinal mitochondrial function [1] read?
Its gastrointestinal mitochondrial function is “increase gastrointestinal mitochondrial function”.

What about the “pup-only aggregons, pattern by experimental group” value (mouse model for ASD; night 7, p<0.05, 2′-FL group follows the pattern of the controls) of the same substance?
The value was “This pattern in the aggregons by experimental group was also observed”.

What about the “marginal mean of aggregons including dams” value (mouse model for ASD; night 7 postpartum, 2′-FL via water intake to mothers and pups, antibiotic-treated group 41, controls 26, lower number = more sociality) of the same substance?
The value was 25 aggregons.

And the “sociality of antibiotic-treated mice (dams and their offspring)” value (mouse model for ASD; postpartum day 7)?
Its value is “normal sociality was rescued”.

And the “growth and relative abundance of bifidobacteria” value (bifidobacteria)?
The value was “increases the growth and relative abundance of bifidobacteria”.

And the IL-10 [2]?
The IL-10 was “increase IL-10”.

And the inflammatory cytokine expression [2]?
Its inflammatory cytokine expression is “decrease inflammatory cytokine expression”.
